Assays:
[1] = biological target: T1, xanthine oxidoreductase (XOR) (Bos taurus, UniProt P80457)
T1 construct: gene XDH

[2] = biological target: T2, urate transporter 1 (URAT1) (Homo sapiens, UniProt Q96S37); test: non-isotopic uric acid uptake inhibition in URAT1-overexpressing HEK293 cells; assay type: cell-based
T2 construct: gene SLC22A12
T2 sequence (Q96S37 1-553): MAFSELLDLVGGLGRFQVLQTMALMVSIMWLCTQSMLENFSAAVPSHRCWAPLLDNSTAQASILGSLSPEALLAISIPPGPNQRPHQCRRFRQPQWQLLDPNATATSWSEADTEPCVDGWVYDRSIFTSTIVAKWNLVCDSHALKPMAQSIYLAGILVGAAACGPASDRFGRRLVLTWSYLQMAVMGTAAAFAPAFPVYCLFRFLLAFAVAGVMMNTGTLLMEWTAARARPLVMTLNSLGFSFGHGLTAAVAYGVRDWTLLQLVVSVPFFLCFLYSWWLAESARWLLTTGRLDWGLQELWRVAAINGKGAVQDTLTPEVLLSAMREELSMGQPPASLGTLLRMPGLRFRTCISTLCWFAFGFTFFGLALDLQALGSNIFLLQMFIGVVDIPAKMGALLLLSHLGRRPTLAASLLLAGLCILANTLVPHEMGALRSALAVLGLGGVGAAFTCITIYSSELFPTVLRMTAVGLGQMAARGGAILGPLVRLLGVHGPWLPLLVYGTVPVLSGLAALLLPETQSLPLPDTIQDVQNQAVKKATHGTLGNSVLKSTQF

[3] = biological target: T2, urate transporter 1 (URAT1); test: non-isotopic uric acid uptake inhibition in URAT1-overexpressing HEK293 cells (positive control drug); assay type: cell-based

T1 sequence (P80457 2-1332): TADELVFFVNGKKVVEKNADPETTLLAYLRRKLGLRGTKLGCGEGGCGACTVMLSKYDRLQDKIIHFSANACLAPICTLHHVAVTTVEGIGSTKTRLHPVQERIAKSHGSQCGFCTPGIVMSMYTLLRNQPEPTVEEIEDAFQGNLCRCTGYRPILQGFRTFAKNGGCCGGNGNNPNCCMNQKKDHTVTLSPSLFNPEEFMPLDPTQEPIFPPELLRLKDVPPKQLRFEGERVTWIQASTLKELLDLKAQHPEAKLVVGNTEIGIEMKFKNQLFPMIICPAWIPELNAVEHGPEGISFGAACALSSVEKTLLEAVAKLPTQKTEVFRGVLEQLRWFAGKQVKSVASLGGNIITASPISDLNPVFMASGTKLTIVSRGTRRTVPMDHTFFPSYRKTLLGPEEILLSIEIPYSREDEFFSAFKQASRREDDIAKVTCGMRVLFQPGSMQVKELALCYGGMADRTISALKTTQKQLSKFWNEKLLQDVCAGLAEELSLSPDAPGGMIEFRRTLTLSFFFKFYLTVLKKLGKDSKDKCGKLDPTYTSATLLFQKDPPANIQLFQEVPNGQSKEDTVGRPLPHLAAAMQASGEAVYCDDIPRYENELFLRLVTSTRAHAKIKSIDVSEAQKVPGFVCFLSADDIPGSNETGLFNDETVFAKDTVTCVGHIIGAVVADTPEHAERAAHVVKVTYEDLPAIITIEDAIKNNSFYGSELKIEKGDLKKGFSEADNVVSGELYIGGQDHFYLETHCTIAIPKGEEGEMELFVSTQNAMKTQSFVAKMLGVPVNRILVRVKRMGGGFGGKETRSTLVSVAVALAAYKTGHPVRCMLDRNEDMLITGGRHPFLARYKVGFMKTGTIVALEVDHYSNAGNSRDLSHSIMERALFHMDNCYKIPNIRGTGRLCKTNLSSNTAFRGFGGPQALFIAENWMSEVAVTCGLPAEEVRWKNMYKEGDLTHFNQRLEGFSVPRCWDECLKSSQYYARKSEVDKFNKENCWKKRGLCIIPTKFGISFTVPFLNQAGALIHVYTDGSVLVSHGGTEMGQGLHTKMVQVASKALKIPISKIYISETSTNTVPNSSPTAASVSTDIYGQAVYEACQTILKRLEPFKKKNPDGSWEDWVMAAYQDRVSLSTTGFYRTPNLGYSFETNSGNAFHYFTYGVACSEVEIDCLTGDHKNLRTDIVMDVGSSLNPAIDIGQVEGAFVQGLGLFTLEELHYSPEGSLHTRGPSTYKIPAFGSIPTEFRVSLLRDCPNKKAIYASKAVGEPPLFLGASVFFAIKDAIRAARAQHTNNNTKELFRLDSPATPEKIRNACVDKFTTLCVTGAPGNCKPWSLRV

Cc1nc(-c2ccc(OCC(C)C)c(C#N)c2)sc1C(=O)O [febuxostat]
% inhibition at 0.1 μM [1]: 94.8

O=C(O)C1(Sc2ccccc2N2CCOc3ccccc32)CCC1 [CC18002]
IC50 [2]: 1690 nM

O=C(O)C1(Sc2ccnc3ccc(Br)cc23)CCC1 [SHR4640]
IC50 [3]: 130 nM
